Reference: patent publication US5840684A, “Glycopeptide antibiotic derivatives” (Eli Lilly and Company, priority 1995, dated 1998)
In brackets after ≈: the same amount, converted by molar mass.

Key:
[1] = tested on: Staphylococcus aureus S13E; assay type: cell-based
Experimental: (§1) The MIC's were determined using a standard broth micro-dilution assay.

[2] = tested on: Entercoccus faecium 180-1; experiment: broth micro-dilution MIC; assay type: cell-based
Experimental: as §1

[3] = tested on: Entercoccus faecium 276; experiment: broth micro-dilution MIC; assay type: cell-based
Experimental: as §1

[4] = tested on: Staphylococcus aureus 446; experiment: broth micro-dilution MIC; assay type: cell-based
Experimental: as §1

[5] = tested on: Staphylococcus aureus 447; experiment: broth micro-dilution MIC; assay type: cell-based
Experimental: as §1

[6] = tested on: Staphylococcus aureus 489; experiment: broth micro-dilution MIC; assay type: cell-based
Experimental: as §1

[7] = tested on: Staphylococcus aureus 491; experiment: broth micro-dilution MIC; assay type: cell-based
Experimental: as §1

[8] = tested on: Staphylococcus aureus SA1199A; experiment: broth micro-dilution MIC; assay type: cell-based
Experimental: as §1

[9] = tested on: Staphylococcus aureus SA1199; experiment: broth micro-dilution MIC; assay type: cell-based
Experimental: as §1

[10] = tested on: Staphylococcus aureus X400; experiment: broth micro-dilution MIC; assay type: cell-based
Experimental: as §1

[11] = tested on: Staphylococcus aureus X778; experiment: broth micro-dilution MIC; assay type: cell-based
Experimental: as §1

[12] = tested on: Streptococcus pyogenes C203; experiment: broth micro-dilution MIC; assay type: cell-based
Experimental: as §1

[13] = tested on: Entercoccus faecium 180; experiment: broth micro-dilution MIC; assay type: cell-based; settings: Entercoccus faecium 180
Experimental: (§2) The formula I compounds have in vitro and in vivo activity against Gram-positive pathogenic bacteria. The MIC's were determined using a standard broth micro-dilution assay.

[14] = tested on: Entercoccus faecium 2041; experiment: broth micro-dilution MIC; assay type: cell-based; settings: Entercoccus faecium 2041
Experimental: as §2

[15] = tested on: Enterococcus gallinarum 245; experiment: broth micro-dilution MIC; assay type: cell-based; settings: Enterococcus gallinarum 245
Experimental: as §2

[16] = tested on: Staphylococcus haemolyticus 105; experiment: broth micro-dilution MIC; assay type: cell-based
Experimental: as §2

[17] = tested on: Staphylococcus haemolyticus 415; experiment: broth micro-dilution MIC; assay type: cell-based
Experimental: as §2

[18] = tested on: Streptococcus pneumoniae P1; experiment: broth micro-dilution MIC; assay type: cell-based
Experimental: as §2

[19] = tested on: Stapylococcus aureus; experiment: mouse protection, experimentally-induced infection; assay type: in vivo; settings: mice infected with Stapylococcus aureus, two doses
[20] = tested on: Streptococcus pyogenes; experiment: mouse protection, experimentally-induced infection; assay type: in vivo; settings: mice infected with Streptococcus pyogenes, two doses
[21] = tested on: Streptococcus pneumoniae; experiment: mouse protection, experimentally-induced infection; assay type: in vivo; settings: mice infected with Streptococcus pneumoniae, two doses
[22] = tested on: vancomycin-resistant enterococci; experiment: broth micro-dilution, mean geometric MIC; assay type: cell-based, Enterococcus faecium and Enterococcus faecalis; settings: enterococci, 24-hour incubation
[23] = tested on: vancomycin-susceptible enterococci; experiment: broth micro-dilution, mean geometric MIC; assay type: cell-based, Enterococcus faecium and Enterococcus faecalis; settings: enterococci, 24-hour incubation
[24] = tested on: Pediococcus acidilacti; experiment: agar dilution MIC, lactic acid bacteria; assay type: cell-based; settings: Pediococcus acidilacti (mean of 10), brain-heart infusion agar
[25] = tested on: Pediococcus pentosaceus; experiment: agar dilution MIC, lactic acid bacteria; assay type: cell-based; settings: Pediococcus pentosaceus (mean of 2), brain-heart infusion agar
[26] = tested on: Leuconostoc lactis; experiment: agar dilution MIC, lactic acid bacteria; assay type: cell-based; settings: Leuconostoc lactis (mean of 2), brain-heart infusion agar
[27] = tested on: Leuconostoc pseudomesenteroides; experiment: agar dilution MIC, lactic acid bacteria; assay type: cell-based; settings: brain-heart infusion agar
[28] = tested on: Leuconostoc citreum; experiment: agar dilution MIC, lactic acid bacteria; assay type: cell-based; settings: brain-heart infusion agar
[29] = tested on: Staphylococcus aureus SA1199B; assay type: cell-based
Experimental: as §1

[30] = tested on: Staphylococcus epidermidis 270; experiment: broth micro-dilution MIC; assay type: cell-based
Experimental: as §2

[31] = tested on: Leuconostoc mesenteroides; experiment: agar dilution MIC, lactic acid bacteria; assay type: cell-based; settings: Leuconostoc mesenteroides (mean of 4), brain-heart infusion agar
[32] = tested on: Lactobacillus confusus; experiment: agar dilution MIC, lactic acid bacteria; assay type: cell-based; settings: Lactobacillus confusus, brain-heart infusion agar

Structure (SMILES) | MIC [1] [µg/mL] | MIC [2] [µg/mL] | MIC [3] [µg/mL] | MIC [5] [µg/mL] | MIC [8] [µg/mL] | MIC [9] [µg/mL] | MIC [10] [µg/mL] | MIC [12] [µg/mL] | MIC [14] [µg/mL] | MIC [15] [µg/mL] | MIC [16] [µg/mL] | MIC [17] [µg/mL] | MIC [18] [µg/mL] | ED50 [19] [mg/kg/2] | ED50 [20] [mg/kg/2] | ED50 [21] [mg/kg/2] | mean geometric MIC, Vancomycin Resistant Strains [22] [µg/mL] | mean geometric MIC, Vancomycin Sensitive Strains [23] [µg/mL] | MIC [24] [µg/mL] | MIC [25] [µg/mL] | other results
CNC(CC(C)C)C(=O)NC1C(=O)NC(CC(N)=O)C(=O)NC2C(=O)NC3C(=O)NC(C(=O)NC(C(=O)O)c4cc(O)cc(O)c4-c4cc3ccc4O)C(OC3CC(C)(N)C(O)C(C)O3)c3ccc(c(Cl)c3)Oc3cc2cc(c3OC2OC(CO)C(O)C(O)C2OC2CC(C)(NCc3ccc4ccccc4c3)C(O)C(C)O2)Oc2ccc(cc2Cl)C1O (stereo not shown) [Compound 1] | 0.125 (≈ 0.0721 µM) | ≤ 0.06 | ≤ 0.06 | ≤ 0.06 | ≤ 0.06 | ≤ 0.06 | ≤ 0.06 | ≤ 0.06 | 0.125 (≈ 0.0721 µM) | 4 (≈ 2.31 µM) | 4 (≈ 2.31 µM) | 4 (≈ 2.31 µM) | ≤ 0.06 | 0.086 | 0.052 | 0.025 | 0.25 | 0.0061 | 18 (≈ 10.4 µM) | 23 (≈ 13.3 µM) | MIC [4]: ≤ 0.06 µg/mL; MIC [6]: ≤ 0.06 µg/mL; MIC [7]: 2 µg/mL (≈ 1.15 µM); MIC [11]: 0.125 µg/mL (≈ 0.0721 µM); MIC [13]: 0.5 µg/mL (≈ 0.289 µM); MIC [26]: 23 µg/mL (≈ 13.3 µM); MIC [27]: > 128 µg/mL; MIC [28]: > 128 µg/mL
CNC(CC(C)C)C(=O)NC1C(=O)NC(CC(N)=O)C(=O)NC2C(=O)NC3C(=O)NC(C(=O)NC(C(=O)O)c4cc(O)cc(O)c4-c4cc3ccc4O)C(OC3CC(C)(N)C(O)C(C)O3)c3ccc(c(Cl)c3)Oc3cc2cc(c3OC2OC(CO)C(O)C(O)C2OC2CC(C)(NCc3ccc(-c4ccccc4)cc3)C(O)C(C)O2)Oc2ccc(cc2Cl)C1O (stereo not shown) [Compound 2, p-phenylbenzyl·A82846B] | ≤ 0.06 | ≤ 0.06 | 0.5 (≈ 0.284 µM) | ≤ 0.06 | ≤ 0.06 | 0.5 (≈ 0.284 µM) | 1 (≈ 0.569 µM) | ≤ 0.06 | 0.125 (≈ 0.0711 µM) | ≤ 0.06 | 2 (≈ 1.14 µM) | 1 (≈ 0.569 µM) | ≤ 0.06 | 0.27 | 0.014 | 0.025 | 0.044 | 0.00038 | 5.9 (≈ 3.35 µM) | 11 (≈ 6.25 µM) | MIC [29]: ≤ 0.06 µg/mL; MIC [4]: ≤ 0.06 µg/mL; MIC [7]: ≤ 0.06 µg/mL; MIC [11]: ≤ 0.06 µg/mL; MIC [30]: 8 µg/mL (≈ 4.55 µM); MIC [26]: 4.0 µg/mL (≈ 2.27 µM); MIC [31]: 16 µg/mL (≈ 9.1 µM); MIC [27]: 32 µg/mL (≈ 18.2 µM); MIC [32]: 16 µg/mL (≈ 9.1 µM)
CNC(CC(C)C)C(=O)NC1C(=O)NC(CC(N)=O)C(=O)NC2C(=O)NC3C(=O)NC(C(=O)NC(C(=O)O)c4cc(O)cc(O)c4-c4cc3ccc4O)C(OC3CC(C)(N)C(O)C(C)O3)c3ccc(c(Cl)c3)Oc3cc2cc(c3OC2OC(CO)C(O)C(O)C2OC2CC(C)(NCc3ccc(OC(F)(F)F)cc3)C(O)C(C)O2)Oc2ccc(cc2Cl)C1O (stereo not shown) [Compound 6] |  | ≤ 0.06 | ≤ 0.06 | 0.5 (≈ 0.283 µM) | ≤ 0.06 |  |  | ≤ 0.06 | ≤ 0.06 | ≤ 0.06 | 0.5 (≈ 0.283 µM) | 0.5 (≈ 0.283 µM) | ≤ 0.06 | 0.15 | 0.013 | 0.021 | 1.2 | 0.14 | 4.3 (≈ 2.43 µM) | 8.0 (≈ 4.53 µM) | MIC [4]: 0.5 µg/mL (≈ 0.283 µM); MIC [26]: 8.0 µg/mL (≈ 4.53 µM); MIC [31]: 9.5 µg/mL (≈ 5.38 µM); MIC [27]: 16 µg/mL (≈ 9.06 µM); MIC [32]: 16 µg/mL (≈ 9.06 µM)
CNC(CC(C)C)C(=O)NC1C(=O)NC(CC(N)=O)C(=O)NC2C(=O)NC3C(=O)NC(C(=O)NC(C(=O)O)c4cc(O)cc(O)c4-c4cc3ccc4O)C(OC3CC(C)(N)C(O)C(C)O3)c3ccc(c(Cl)c3)Oc3cc2cc(c3OC2OC(CO)C(O)C(O)C2OC2CC(C)(NCc3cccc4c3oc3ccccc34)C(O)C(C)O2)Oc2ccc(cc2Cl)C1O (stereo not shown) [Compound 39] | ≤ 0.06 | ≤ 0.06 | ≤ 0.06 |  |  | ≤ 0.06 | ≤ 0.06 | ≤ 0.06 | ≤ 0.06 | ≤ 0.06 | 2 (≈ 1.13 µM) | 4 (≈ 2.26 µM) | ≤ 0.06 | 0.1 | 0.045 | < 0.031 | 1.2 | 0.09 | 26 (≈ 14.7 µM) | 32 (≈ 18.1 µM) | MIC [29]: ≤ 0.06 µg/mL; MIC [11]: ≤ 0.06 µg/mL; MIC [13]: 0.5 µg/mL (≈ 0.282 µM); MIC [26]: 32 µg/mL (≈ 18.1 µM); MIC [31]: 32 µg/mL (≈ 18.1 µM); MIC [32]: 32 µg/mL (≈ 18.1 µM)
CNC(CC(C)C)C(=O)NC1C(=O)NC(CC(N)=O)C(=O)NC2C(=O)NC3C(=O)NC(C(=O)NC(C(=O)O)c4cc(O)cc(O)c4-c4cc3ccc4O)C(OC3CC(C)(N)C(O)C(C)O3)c3ccc(c(Cl)c3)Oc3cc2cc(c3OC2OC(CO)C(O)C(O)C2OC2CC(C)(NCc3cc(OCc4ccccc4)ccc3OC)C(O)C(C)O2)Oc2ccc(cc2Cl)C1O (stereo not shown) [Compound 51] | 0.5 (≈ 0.275 µM) | ≤ 0.06 | ≤ 0.06 | 0.5 (≈ 0.275 µM) | ≤ 0.06 | 0.5 (≈ 0.275 µM) | ≤ 0.06 |  | ≤ 0.06 |  | 0.5 (≈ 0.275 µM) | 1 (≈ 0.55 µM) | ≤ 0.06 | 0.16 | 0.057 | 0.036 | 0.84 | 0.22 | 87 (≈ 47.8 µM) | 91 (≈ 50 µM) | MIC [29]: 1 µg/mL (≈ 0.55 µM); MIC [6]: ≤ 0.06 µg/mL; MIC [11]: 0.5 µg/mL (≈ 0.275 µM); MIC [13]: 0.5 µg/mL (≈ 0.275 µM); MIC [30]: 0.5 µg/mL (≈ 0.275 µM); MIC [31]: 76 µg/mL (≈ 41.8 µM); MIC [27]: > 128 µg/mL; MIC [28]: > 128 µg/mL
CNC(CC(C)C)C(=O)NC1C(=O)NC(CC(N)=O)C(=O)NC2C(=O)NC3C(=O)NC(C(=O)NC(C(=O)O)c4cc(O)cc(O)c4-c4cc3ccc4O)C(OC3CC(C)(N)C(O)C(C)O3)c3ccc(c(Cl)c3)Oc3cc2cc(c3OC2OC(CO)C(O)C(O)C2OC2CC(C)(NCc3ccc(Sc4ccccc4)cc3)C(O)C(C)O2)Oc2ccc(cc2Cl)C1O (stereo not shown) [Compound 108] | 1 (≈ 0.558 µM) | ≤ 0.06 | 0.5 (≈ 0.279 µM) | 0.5 (≈ 0.279 µM) | ≤ 0.06 | 2 (≈ 1.12 µM) | 2 (≈ 1.12 µM) | ≤ 0.06 | ≤ 0.06 | ≤ 0.06 | 2 (≈ 1.12 µM) | 1 (≈ 0.558 µM) | ≤ 0.06 |  | 0.046 | 0.041 | 0.84 | 0.04 | 12 (≈ 6.7 µM) | 23 (≈ 12.8 µM) | MIC [29]: 2 µg/mL (≈ 1.12 µM); MIC [4]: 2 µg/mL (≈ 1.12 µM); MIC [26]: 8.0 µg/mL (≈ 4.47 µM); MIC [31]: 10 µg/mL (≈ 5.58 µM); MIC [27]: 32 µg/mL (≈ 17.9 µM); MIC [32]: 16 µg/mL (≈ 8.93 µM)
